Measurements published in patent US6531148B1, “Therapeutic agents” (Takara Shuzo Co., Ltd., priority 1998, dated 2003).

How the values were obtained:
[1] = tested on: inducible NO synthase (iNOS); assay: iNOS expression (RT-PCR, Western blotting); assay type: cell-based; settings: RAW264.7 cells cultured for 4, 6 or 8 hours
Method: The present inventors have confirmed that the compound of formula (I), the compound of formula (II) and salts thereof inhibit the expression of iNOS. The confirmation was carried out at protein level by using Western blotting and at messenger RNA level by using RT-PCR. […] Therefore, the compound is effective in treating and preventing diseases that require inhibition of NO production for their treatment and prevention.
RNA was prepared from RAW264.7 cells cultured for 4, 6 or 8 hours under conditions similar to those described above. The amount of mRNA encoding inducible NO synthase [iNOS; Biochem. Byophys. Res. Commun., 215:148-153 (1995)] contained in the RNA was determined by the RT-PCR method.

[2] = biological target: T1, α-glucosidase from rat small intestine mucous membrane (Rattus norvegicus, UniProt P23739); assay: α-Glucosidase inhibition test (crude enzyme from rat small intestine); assay type: biochemical; settings: for relative activity: substrate Sucrose, control without DGE = 100%
T1 construct: relative activity; other: substrate Sucrose, DGE 0.2 mM; control without DGE = 100%; relative activity; other: substrate Sucrose, DGE 0.5 mM; other: substrate Sucrose, DGE 1.0 mM; other: substrate Sucrose, DGE 2.0 mM; other: for sucrose, Dixon
T1 sequence (P23739 whole entry): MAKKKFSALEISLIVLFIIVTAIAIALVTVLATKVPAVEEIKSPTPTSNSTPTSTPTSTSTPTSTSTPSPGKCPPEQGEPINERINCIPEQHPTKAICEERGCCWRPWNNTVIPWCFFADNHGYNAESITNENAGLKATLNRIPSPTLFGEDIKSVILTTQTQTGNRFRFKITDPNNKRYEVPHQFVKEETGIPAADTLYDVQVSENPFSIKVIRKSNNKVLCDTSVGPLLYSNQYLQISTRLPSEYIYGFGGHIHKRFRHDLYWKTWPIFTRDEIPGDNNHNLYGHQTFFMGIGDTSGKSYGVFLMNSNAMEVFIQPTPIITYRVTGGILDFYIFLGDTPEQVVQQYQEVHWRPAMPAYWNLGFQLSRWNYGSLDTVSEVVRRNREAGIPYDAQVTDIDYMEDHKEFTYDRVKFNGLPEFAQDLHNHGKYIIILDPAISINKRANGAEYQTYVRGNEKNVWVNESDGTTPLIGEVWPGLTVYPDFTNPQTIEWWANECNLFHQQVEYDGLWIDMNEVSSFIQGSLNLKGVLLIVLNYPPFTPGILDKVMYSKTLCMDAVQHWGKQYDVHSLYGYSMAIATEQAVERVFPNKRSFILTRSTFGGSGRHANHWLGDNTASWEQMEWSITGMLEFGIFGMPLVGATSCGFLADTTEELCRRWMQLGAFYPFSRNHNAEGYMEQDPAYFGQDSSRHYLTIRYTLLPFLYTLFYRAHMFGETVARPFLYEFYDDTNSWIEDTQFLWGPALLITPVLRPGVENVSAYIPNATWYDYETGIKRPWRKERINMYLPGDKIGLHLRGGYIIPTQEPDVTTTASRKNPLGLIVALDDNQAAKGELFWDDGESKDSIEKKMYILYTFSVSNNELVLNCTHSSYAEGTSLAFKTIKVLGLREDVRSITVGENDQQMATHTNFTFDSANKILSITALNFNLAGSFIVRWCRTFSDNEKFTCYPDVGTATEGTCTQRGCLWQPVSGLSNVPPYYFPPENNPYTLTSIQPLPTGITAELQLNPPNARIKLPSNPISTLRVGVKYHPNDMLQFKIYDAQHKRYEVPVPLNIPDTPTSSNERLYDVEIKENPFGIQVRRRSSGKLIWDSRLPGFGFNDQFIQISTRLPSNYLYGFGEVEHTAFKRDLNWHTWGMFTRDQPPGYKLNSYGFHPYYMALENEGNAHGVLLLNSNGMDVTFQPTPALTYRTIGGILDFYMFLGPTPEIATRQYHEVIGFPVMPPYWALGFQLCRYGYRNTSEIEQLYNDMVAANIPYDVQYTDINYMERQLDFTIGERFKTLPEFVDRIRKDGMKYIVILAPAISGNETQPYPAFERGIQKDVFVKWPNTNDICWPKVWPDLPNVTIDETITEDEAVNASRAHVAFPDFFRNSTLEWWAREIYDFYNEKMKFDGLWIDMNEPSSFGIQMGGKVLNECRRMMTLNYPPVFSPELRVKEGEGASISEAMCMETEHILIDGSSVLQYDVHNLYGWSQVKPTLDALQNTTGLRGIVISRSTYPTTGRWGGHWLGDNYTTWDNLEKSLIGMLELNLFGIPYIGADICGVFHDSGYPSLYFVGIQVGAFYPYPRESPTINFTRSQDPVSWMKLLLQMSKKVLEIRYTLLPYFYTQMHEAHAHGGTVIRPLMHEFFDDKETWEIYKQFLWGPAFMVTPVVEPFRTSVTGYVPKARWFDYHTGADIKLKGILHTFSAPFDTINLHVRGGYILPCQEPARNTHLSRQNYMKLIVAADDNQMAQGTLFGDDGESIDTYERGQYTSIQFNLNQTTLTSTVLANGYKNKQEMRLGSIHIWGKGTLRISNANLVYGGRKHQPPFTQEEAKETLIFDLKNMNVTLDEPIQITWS
Method: (2) A crude enzyme preparation of α-glucosidase from rat small intestine mucous membrane [prepared according to the method as described in Arne Dahlqvist, Anal. Biochem., 7:18-25 (1964)] was used to measure the activity of inhibiting α-glucosidase of DGE as follows.
For the enzymatic reaction, 80 μl of a solution of sucrose, maltose, treharose or soluble starch as a substrate in 10 mM phosphate buffer (pH 7.0) buffer at a final concentration of 100 mM (0.5% for soluble starch) was added to 10 μl of a test sample solution appropriately diluted with the same buffer. 10 μl of the crude enzyme solution prepared from rat small intestine was added thereto. The mixture was reacted at 37° C. for 20 minutes.
The enzymatic reaction was assessed by adding 3 ml of a reagent for glucose measurement (Wako Pure Chemical Industries) to the reaction mixture, reacting at 37° C. for 5 minutes and then measuring the absorbance at 505 nm as the glucose content in the mixture.
The inhibitory activity of DGE on the digestion of each substrate by α-glycosidase was measured using DGE at four different concentrations according to the above-mentioned method. The activity of inhibiting α-glycosidase was expressed as a relative activity (%) defining the activity of the control without DGE as 100%.

[3] = tested on: human FGF-β; assay: Cytokine production from DSEK cells (ELISA); assay type: cell-based; settings: DSEK culture supernatant at 24 or 72 hours
Method: (§1) 150 μl/well of culture supernatant was recovered from the DSEK cell culture at 24 or 72 hours. The effects of DGE on the production (expression) of cytokines (human TGF-β, human FGF-β, human IL-1α and human IL-10) from the cell were determined using ELISA kits specific for the respective cytokines (from Intergen for human FGF-β and human IL-10; and from Promega for human IL-1α and human TGF-β).

[4] = tested on: human IL-10; assay: Cytokine production from DSEK cells (ELISA); assay type: cell-based; settings: DSEK culture supernatant at 24 or 72 hours
Method: as §1

[5] = tested on: human IL-1α; assay: Cytokine production from DSEK cells (ELISA); assay type: cell-based; settings: DSEK culture supernatant at 24 or 72 hours
Method: as §1

[6] = tested on: human TGF-β; assay: Cytokine production from DSEK cells (ELISA); assay type: cell-based; settings: DSEK culture supernatant at 24 or 72 hours
Method: as §1

## O=C1C=CC(CO)OC1O [DGE, L-glycero-1,5-epoxy-1αβ,6-dihydroxy-cis-hex-3-en-2-one]
[1]
  amplification of a DNA fragment from the iNOS mRNA: no amplification of the fragment was observed
[2]
  activity of inhibiting α-glycosidase with sucrose as a substrate compared with maltose or the like: exhibited a higher activity of inhibiting α-glycosidase
[2]; for sucrose, Dixon plot, read-out: inhibition constant (Ki)
  Ki: 6 mM
[2]; DGE 0.2 mM
  relative activity: 91%
[2]; DGE 0.5 mM
  relative activity: 92%
[2]; DGE 1.0 mM
  relative activity: 83%
[2]; DGE 2.0 mM
  relative activity: 71%
[3]
  production of human FGF-β: inhibiting the production
[4]
  production of human IL-10: enhancing the production
[5]
  production of human IL-1α: inhibiting the production
[6]
  production of human TGF-β: enhancing the production
